This is an account of results in PubChem BioAssay (NCI).

Holding throughout (assay): inhibition of tumour cell growth, NCI panel, 48 h
In test [1] the test system is HL-60(TB) leukemia.
The subject of test [2] is SK-MEL-28 melanoma.
For test [3], the system named is SK-MEL-2 melanoma.
Test [4] deals with EKVX NSCLC.
In test [5] the test system is HOP-62 NSCLC.
Test [6] relates to 786-0 renal.
Test [7] has as its system PC-3 prostate.
The subject of test [8] is HCT-116 colon.
The test system of test [9] is UACC-62 melanoma.
Test [10] concerns A498 renal.

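Growth conditions: 96-well plates. Treatment: test compound, 48 hours, 5 concentrations. Analysis: linear interpolation between bracketing concentrations; unreached endpoints set to highest concentration. Here, GI50 denotes the concentration required for 50% inhibition of growth. At the TGI there is no net growth.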

With `COc1cc(/C=C2\Sc3scc(-c4cccc([N+](=O)[O-])c4)[n+]3C2=O)cc(OC)c1OC`, the TGI in test [1] was determined as 82.1 µM; in [2] it was 34.8 µM; in test [3], 39.8 µM; in [4], 26.5 µM; in test [5], 36.1 µM; in [6], 22.2 µM. The TGI is 86.3 µM in [7], 26.4 µM in test [8], 24.2 µM in [9] and > 100 µM in [10].
In the case of `COc1c(Cl)cc(NC(=S)C#N)cc1Cl`, the TGI is > 100 µM in test [1]; > 71.4 µM in [2]; 86.2 µM in [3]; > 74 µM in test [4]; > 50.9 µM in test [5]; 88.2 µM in test [6]. Also, the TGI is > 100 µM in [7], 31.6 µM in test [8], 30.8 µM in [9] and 44.5 µM in test [10].
With `C/C=C(\C)C(=O)O[C@H]1C=CC(=O)O[C@@H]1CC[C@H](O)[C@H](C)O`, the GI50 in test [1] is 5.71 µM; in [2], 27.4 µM; in test [3] it was 37.6 µM; in test [4], 73.9 µM; in [5] it was > 100 µM; in test [6], 46.5 µM. Further, the GI50 in [7] was > 86.2 µM; in test [8] it was 21.4 µM; in [9], 38.5 µM; in test [10], > 100 µM. Moreover, the TGI in test [1] is 36.3 µM; in [2], 74.7 µM; in test [3], 98.1 µM; in test [4], > 100 µM; in [5], > 100 µM; in [6], > 100 µM. The TGI in test [7] was > 100 µM; in test [8] it was 67.2 µM; in test [9], > 73.9 µM; in test [10], > 100 µM.
Turning to `C=C1C(=O)OC2C1C(OC(=O)/C(C)=C/C)CC(O)(CCl)C1C(O)C3OC3(C)C21O` (centres undefined), the TGI in test [1] was 23.2 µM; in test [2], > 50 µM; in test [3], > 50 µM; in test [4], > 50 µM; in test [5], > 50 µM; in test [6], 39 µM. For the same compound, the TGI in [7] was > 50 µM; in [8], 23.7 µM; in test [9], > 50 µM; in [10], > 50 µM.
With `O=c1nc2oc3ccc4ccccc4c3cc-2s1`, the GI50 in test [1] was 1.41 µM; in test [2] it was 14.6 µM; in [3], 3.79 µM; in test [4], 59.6 µM; in [5], 4.7 µM; in test [6], 3.25 µM. Moreover, the GI50 in [7] was 3.16 µM; in [8] it was 1.14 µM; in [9], 1.22 µM; in test [10], 0.184 µM. Besides, the TGI in test [1] was > 100 µM; in test [2] it was > 100 µM; in test [3] it was > 100 µM; in test [4] it was > 100 µM; in [5] it was > 79 µM; in test [6], > 100 µM. Also, the TGI was > 100 µM in test [7], > 100 µM in test [8], > 100 µM in [9] and 7.86 µM in test [10].
Turning to `CC(C)(O)CC(=O)NCCn1ccc2ncnc(Nc3ccc(Oc4cccc(C(F)(F)F)c4)c(Cl)c3)c21`, the GI50 is 2.88 µM in test [1]; 4.43 µM in [2]; 8.66 µM in test [3]; 0.415 µM in test [4]; 4.7 µM in test [5]; 4.01 µM in test [6]. Besides, the GI50 in [7] was 3.46 µM; in test [8] it was 2.92 µM; in [9] it was 2.96 µM; in [10], 2.9 µM. For the same compound, the TGI in [1], in [2], in test [3], in test [4], in test [5] and in test [6] was > 10 µM each time. In addition, the TGI in [7], in test [8], in test [9] and in [10] was > 10 µM each time.
Take `CN(C)c1ccc2c(c1)OC(N)=C(C#N)C2c1ccc2c(c1)CCO2` (centres undefined): the GI50 in [1] is 0.0939 µM; in test [2], 1.92 µM; in [3], 0.0962 µM; in test [4] it was 0.47 µM; in test [6], 0.0502 µM; in [7] it was 0.0664 µM. Further, the GI50 was < 0.0201 µM in test [8], < 0.0205 µM in [9] and < 0.0272 µM in test [10]. The TGI in test [1] was 0.491 µM; in [2] it was 29.5 µM; in [3] it was 24.7 µM; in test [4], > 100 µM; in test [5] it was > 76.7 µM; in [6], 25.1 µM. In addition, the TGI is > 100 µM in test [7], 8.52 µM in test [8], 21.9 µM in [9] and 5.59 µM in [10].
`COc1cc([C@H]2OC[C@H]3[C@@H]2CO[C@@H]3c2cc(OC)c3c(c2)OCO3)cc(OC)c1OC`: the TGI in test [1], in [2], in test [3], in [4], in test [5] and in test [6] was > 100 µM throughout. In addition, the TGI in test [7], in test [8], in test [9] and in test [10] was > 100 µM in each case.
As for `COc1ccc(C2SC(C)C(=O)N2NC(=O)C(O)c2ccccc2)cc1OC` (centres undefined), the GI50 in [1], in test [2], in test [3], in test [4], in [5] and in [6] was > 100 µM each time. Also, the GI50 in test [7], in [8], in [9] and in test [10] was > 100 µM each time. The TGI in test [1], in test [2], in test [3], in [4], in test [5] and in test [6] was > 100 µM throughout. Further, the TGI in test [7], in [8], in [9] and in test [10] was > 100 µM each time.
